{
  "source": "paper doi:10.1101/2022.10.18.512764v1",
  "about": "(bioRxiv, 2022)",
  "key": {"HeLa [1]": {"tested_on": "HeLa", "experiment": "TMR-TAT endocytic uptake measured by flow cytometry", "assay_type": "cell-based"}, "HeLa [2]": {"tested_on": "HeLa", "experiment": "Quantification of TMR-TAT puncta by 100x fluorescence microscopy", "assay_type": "cell-based", "conditions": "TMR-TAT 5 µM, 1 h, 100x deconvoluted images, individual puncta"}},
  "data": [
    {"sequence": "RKKQRRRG [TMR-TAT]", "values": [
      {"measurement": "Effect of cell aging on endocytosis", "setting": "HeLa [1]; HeLa cultured 2, 10, 25 days, TMR-TAT 5 µM, 1 h, Fig S1", "result": "no effect"},
      {"measurement": "Difference in uptake between growth in LG-DMEM and HG-DMEM, incubation in L-15", "setting": "HeLa [1]; HeLa grown 24 h, TMR-TAT 5 µM 1 h in L-15, Fig 3B", "result": "not detectable"},
      {"measurement": "Rate of TMR-TAT uptake at 25°C as percentage of that at 37°C", "setting": "HeLa [1]; HeLa, TMR-TAT 5 µM in L-15, 5-60 min", "result": "approximately 50%"},
      {"measurement": "Uptake less at 25°C than at 37°C, fold", "setting": "HeLa [1]; HeLa, TMR-TAT 5 µM in L-15, 60 min incubation time point, Fig 4", "result": 1.9, "unit": "fold"},
      {"measurement": "Effect of removing glucose from DMEM during incubation on uptake", "setting": "HeLa [1]; HeLa, TMR-TAT 5 µM, 1 h, DMEM 0 vs 25 mM glucose, Fig 3C", "result": "reduction"},
      {"measurement": "Effect of adding glucose to L15 on uptake", "setting": "HeLa [1]; HeLa, TMR-TAT 5 µM, 1 h, L15 25 vs 0 mM glucose (5 mM galactose), Fig 3C", "result": "increased"},
      {"measurement": "Effect of 0 wash on uptake", "setting": "HeLa [1]; HeLa, TMR-TAT 5 µM, 1 h, possibly because of unwashed BSA, Fig S4", "result": "uptake is inhibited"},
      {"measurement": "Difference between MUP and HUP, fold MFI change", "setting": "HeLa [1]; HeLa, TMR-TAT 5 µM, 1 h, discussion", "result": 2.3, "unit": "fold"},
      {"measurement": "Fold increase in uptake, HUP compared to LUP", "setting": "HeLa [1]; HeLa, TMR-TAT 5 µM, 1 h, using a median of 0.8 × 10^3 for untreated cells", "result": 13, "unit": "fold"},
      {"measurement": "Endocytosis higher in DMEM (serum free) than in L-15, factor", "setting": "HeLa [1]; HeLa, TMR-TAT 5 µM, 1 h incubation, Fig 3A", "result": 1.4, "unit": "fold"},
      {"measurement": "Average pixel intensity of puncta, HUP versus MUP", "setting": "HeLa [2]", "result": "not statistically different"}
    ]}
  ]
}
